Laboratory results taken from PubChem BioAssay (NCI).
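Step 1: Grow cells in 96-well plates. Step 2: Expose to compound for 48 hours at 5 concentrations. Step 3: Interpolate endpoints linearly; if unreached, use highest concentration. Abbreviation: GI50, concentration required for 50% inhibition of growth. The concentration for full growth arrest is given as TGI.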

How the values were obtained:
Assay in all cases: NCI-60 cell line screen, 48 h
K-562 leukemia = tested on: K-562 leukemia
A498 renal = tested on: A498 renal
HCC-2998 colon = tested on: HCC-2998 colon
UO-31 renal = tested on: UO-31 renal
SNB-75 CNS = tested on: SNB-75 CNS
SR leukemia = tested on: SR leukemia
CAKI-1 renal = tested on: CAKI-1 renal
T-47D breast = tested on: T-47D breast
HCT-15 colon = tested on: HCT-15 colon
MALME-3M melanoma = tested on: MALME-3M melanoma
RXF 393 renal = tested on: RXF 393 renal
MOLT-4 leukemia = tested on: MOLT-4 leukemia
OVCAR-5 ovarian = tested on: OVCAR-5 ovarian
786-0 renal = tested on: 786-0 renal
NCI/ADR-RES ovarian = tested on: NCI/ADR-RES ovarian
MDA-MB-231 breast = tested on: MDA-MB-231 breast
SW-620 colon = tested on: SW-620 colon
KM12 colon = tested on: KM12 colon
HT29 colon = tested on: HT29 colon
HCT-116 colon = tested on: HCT-116 colon
A549 NSCLC = tested on: A549 NSCLC
HL-60(TB) leukemia = tested on: HL-60(TB) leukemia
BT-549 breast = tested on: BT-549 breast
U251 CNS = tested on: U251 CNS
SK-MEL-2 melanoma = tested on: SK-MEL-2 melanoma
MDA-MB-435 = tested on: MDA-MB-435
LOX IMVI melanoma = tested on: LOX IMVI melanoma
NCI-H522 lung = tested on: NCI-H522 lung
COLO 205 colon = tested on: COLO 205 colon
NCI-H460 lung = tested on: NCI-H460 lung
MCF7 breast = tested on: MCF7 breast
RPMI-8226 leukemia = tested on: RPMI-8226 leukemia
UACC-257 melanoma = tested on: UACC-257 melanoma
SF-295 CNS = tested on: SF-295 CNS
ACHN renal = tested on: ACHN renal
M14 melanoma = tested on: M14 melanoma
SK-MEL-5 melanoma = tested on: SK-MEL-5 melanoma
SF-539 CNS = tested on: SF-539 CNS
SNB-19 CNS = tested on: SNB-19 CNS
HOP-62 NSCLC = tested on: HOP-62 NSCLC
OVCAR-8 ovarian = tested on: OVCAR-8 ovarian
EKVX NSCLC = tested on: EKVX NSCLC
SN12C renal = tested on: SN12C renal
UACC-62 melanoma = tested on: UACC-62 melanoma
CCRF-CEM leukemia = tested on: CCRF-CEM leukemia
SK-OV-3 ovarian = tested on: SK-OV-3 ovarian
HOP-92 NSCLC = tested on: HOP-92 NSCLC
HS 578T breast = tested on: HS 578T breast
OVCAR-3 ovarian = tested on: OVCAR-3 ovarian
IGROV1 ovarian = tested on: IGROV1 ovarian
NCI-H226 lung = tested on: NCI-H226 lung
NCI-H23 lung = tested on: NCI-H23 lung
TK-10 renal = tested on: TK-10 renal
SK-MEL-28 melanoma = tested on: SK-MEL-28 melanoma
DU-145 prostate = tested on: DU-145 prostate
SF-268 CNS = tested on: SF-268 CNS
PC-3 prostate = tested on: PC-3 prostate
OVCAR-4 ovarian = tested on: OVCAR-4 ovarian

`CCCn1cnc2c(SCc3ccccc3Cl)nc(N)nc21` was tested, and the GI50 (K-562 leukemia) was 6.55 µM, the TGI (K-562 leukemia) was greater than 100 µM and the GI50 (A498 renal) was 18.3 µM. The TGI (A498 renal) was greater than 100 µM, the GI50 (HCC-2998 colon) was 17.8 µM and the TGI (HCC-2998 colon) was 67 µM. For the same compound, the GI50 (UO-31 renal) was 10.8 µM, the TGI (UO-31 renal) was 63.5 µM and the GI50 (SNB-75 CNS) was 19.7 µM. For the same compound, the TGI (SNB-75 CNS) was 86 µM, the GI50 (SR leukemia) was 2.23 µM and the TGI (SR leukemia) was 14.2 µM. For the same compound, the GI50 (CAKI-1 renal) was 6.43 µM, the TGI (CAKI-1 renal) was 44.1 µM and the GI50 (T-47D breast) was 22 µM. It also gave a TGI (T-47D breast) of 80.8 µM, a GI50 (HCT-15 colon) of 1.36 µM and a TGI (HCT-15 colon) of 20.1 µM. For the same compound, the GI50 (MALME-3M melanoma) was 21.4 µM, the TGI (MALME-3M melanoma) was 58.7 µM and the GI50 (RXF 393 renal) was 6.16 µM. It also gave a TGI (RXF 393 renal) of 24.8 µM, a GI50 (MOLT-4 leukemia) of 5.22 µM and a TGI (MOLT-4 leukemia) of 34.1 µM. It also gave a GI50 (OVCAR-5 ovarian) of 25.7 µM, a TGI (OVCAR-5 ovarian) of 91.9 µM and a GI50 (786-0 renal) of 14.9 µM. The TGI (786-0 renal) was 31.6 µM, the GI50 (NCI/ADR-RES ovarian) was 14.8 µM and the TGI (NCI/ADR-RES ovarian) was 64.1 µM. The GI50 (MDA-MB-231 breast) was 11.8 µM, the TGI (MDA-MB-231 breast) was 29.3 µM and the GI50 (SW-620 colon) was 11.9 µM. The TGI (SW-620 colon) was greater than 100 µM, the GI50 (KM12 colon) was 15.3 µM and the TGI (KM12 colon) was greater than 100 µM. For the same compound, the GI50 (HT29 colon) was 7.59 µM, the TGI (HT29 colon) was greater than 100 µM and the GI50 (HCT-116 colon) was 5.2 µM. It also gave a TGI (HCT-116 colon) of 17.5 µM, a GI50 (A549 NSCLC) of 20.8 µM and a TGI (A549 NSCLC) greater than 100 µM. The GI50 (HL-60(TB) leukemia) was 5.53 µM, the TGI (HL-60(TB) leukemia) was 28.6 µM and the GI50 (BT-549 breast) was 13.7 µM. For the same compound, the TGI (BT-549 breast) was 44 µM, the GI50 (U251 CNS) was 5.62 µM and the TGI (U251 CNS) was 37.8 µM. The GI50 (SK-MEL-2 melanoma) was 22.6 µM, the TGI (SK-MEL-2 melanoma) was 50.9 µM and the GI50 (MDA-MB-435) was 13.6 µM. It also gave a TGI (MDA-MB-435) of 37 µM, a GI50 (LOX IMVI melanoma) of 4.86 µM and a TGI (LOX IMVI melanoma) of 20.3 µM. It also gave a GI50 (NCI-H522 lung) of 19.4 µM, a TGI (NCI-H522 lung) of 71.1 µM and a GI50 (COLO 205 colon) of 10.7 µM. For the same compound, the TGI (COLO 205 colon) was greater than 100 µM, the GI50 (NCI-H460 lung) was 4.2 µM and the TGI (NCI-H460 lung) was 26.4 µM. It also gave a GI50 (MCF7 breast) of 38.6 µM, a TGI (MCF7 breast) greater than 100 µM and a GI50 (RPMI-8226 leukemia) of 6.28 µM. The TGI (RPMI-8226 leukemia) was 28.2 µM, the GI50 (UACC-257 melanoma) was 27.8 µM and the TGI (UACC-257 melanoma) was 93.8 µM. It also gave a GI50 (SF-295 CNS) of 10.2 µM, a TGI (SF-295 CNS) of 30.4 µM and a GI50 (ACHN renal) of 13.6 µM. It also gave a TGI (ACHN renal) of 67.4 µM, a GI50 (M14 melanoma) of 17.6 µM and a TGI (M14 melanoma) of 61.9 µM. The GI50 (SK-MEL-5 melanoma) was 4.22 µM, the TGI (SK-MEL-5 melanoma) was 19 µM and the GI50 (SF-539 CNS) was 9.81 µM. For the same compound, the TGI (SF-539 CNS) was 44.8 µM, the GI50 (SNB-19 CNS) was 25.8 µM and the TGI (SNB-19 CNS) was greater than 100 µM. It also gave a GI50 (HOP-62 NSCLC) of 21.1 µM, a TGI (HOP-62 NSCLC) greater than 100 µM and a GI50 (OVCAR-8 ovarian) of 15.3 µM. The TGI (OVCAR-8 ovarian) was greater than 100 µM, the GI50 (EKVX NSCLC) was 24.2 µM and the TGI (EKVX NSCLC) was greater than 100 µM. For the same compound, the GI50 (SN12C renal) was 19.6 µM, the TGI (SN12C renal) was 95.2 µM and the GI50 (UACC-62 melanoma) was 8.53 µM. The TGI (UACC-62 melanoma) was 22.7 µM, the GI50 (CCRF-CEM leukemia) was 5.9 µM and the TGI (CCRF-CEM leukemia) was 47.3 µM. It also gave a GI50 (SK-OV-3 ovarian) of 14.9 µM, a TGI (SK-OV-3 ovarian) greater than 100 µM and a GI50 (HOP-92 NSCLC) of 1.44 µM. It also gave a TGI (HOP-92 NSCLC) of 23.9 µM, a GI50 (HS 578T breast) of 40.4 µM and a TGI (HS 578T breast) greater than 100 µM. The GI50 (OVCAR-3 ovarian) was 20.5 µM, the TGI (OVCAR-3 ovarian) was 79.6 µM and the GI50 (IGROV1 ovarian) was 13.3 µM. For the same compound, the TGI (IGROV1 ovarian) was greater than 100 µM, the GI50 (NCI-H226 lung) was 16.4 µM and the TGI (NCI-H226 lung) was greater than 100 µM. The GI50 (NCI-H23 lung) was 30 µM, the TGI (NCI-H23 lung) was greater than 100 µM and the GI50 (TK-10 renal) was 14.5 µM. For the same compound, the TGI (TK-10 renal) was greater than 100 µM, the GI50 (SK-MEL-28 melanoma) was 27 µM and the TGI (SK-MEL-28 melanoma) was greater than 100 µM. For the same compound, the GI50 (DU-145 prostate) was 15.5 µM, the TGI (DU-145 prostate) was 45.6 µM and the GI50 (SF-268 CNS) was 12.1 µM. The TGI (SF-268 CNS) was 92.7 µM, the GI50 (PC-3 prostate) was 6.49 µM and the TGI (PC-3 prostate) was 37.5 µM. The GI50 (OVCAR-4 ovarian) was 28 µM and the TGI (OVCAR-4 ovarian) was greater than 100 µM.
